Experiments:
Format in all cases: in vivo
Setaria faberi (SETFA) [1] = assay: Pre-emergence herbicidal test; settings: 1000 g/ha, evaluated after 13 days
[2] = tested on: Echinochloa crus-galli (ECHCG); assay: Pre-emergence herbicidal test; settings: 1000 g/ha, evaluated after 13 days
[3] = tested on: Amaranthus retoflexus (AMARE); assay: Pre-emergence herbicidal test; settings: 1000 g/ha, evaluated after 13 days
[4] = tested on: Abutilon theophrasti (ABUTH); assay: Post-emergence herbicidal test; settings: 1000 g/ha unless otherwise stated, evaluated after 13 days
Protocol: (§1) Seeds of a variety of test species are sown in standard soil in pots (Amaranthus retoflexus (AMARE), Solanum nigrum (SOLNI), Setaria faberi (SETFA), Lolium perenne (LOLPE), Echinochloa crus-galli (ECHCG), Ipomoea hederacea (IPOHE), Abutilon theophrasti (ABUTH), Zea mays (ZEAMX)). After 8 days cultivation under controlled conditions in a glasshouse (at 24° C./16° C., day/night; 14 hours light; 65% humidity), the plants are sprayed with an aqueous spray solution derived from the formulation of the technical active ingredient in acetone/water (50:50) solution containing 0.5% Tween 20 (polyoxyethelyene sorbitan monolaurate, CAS RN 9005-64-5). Compounds are applied at 1000 g/ha unless otherwise stated. The test plants are then grown in a glasshouse under controlled conditions in a glasshouse (at 24° C./16° C., day/night; 14 hours light; 65% humidity) and watered twice daily. After 13 days the test is evaluated for the percentage damage caused to the plant. The biological activities are shown in the following table on a five-point scale (5=81-100%; 4=61-80%; 3=41-60%; 2=21-40%; 1=10-20%; 0=0%;−=not tested).

Setaria faberi (SETFA) [5] = assay: Post-emergence herbicidal test; settings: 1000 g/ha unless otherwise stated, evaluated after 13 days
Protocol: as §1

[6] = tested on: Ipomoea hederacea (IPOHE); assay: Post-emergence herbicidal test; settings: 1000 g/ha unless otherwise stated, evaluated after 13 days
Protocol: as §1

[7] = tested on: Amaranthus retoflexus (AMARE); assay: Post-emergence herbicidal test; settings: 1000 g/ha unless otherwise stated, evaluated after 13 days
Protocol: as §1

[8] = tested on: Echinochloa crus-galli (ECHCG); assay: Post-emergence herbicidal test; settings: 1000 g/ha unless otherwise stated, evaluated after 13 days
Protocol: as §1

Zea mays (ZEAMX) [9] = assay: Post-emergence herbicidal test; settings: 1000 g/ha unless otherwise stated, evaluated after 13 days
Protocol: as §1

[10] = tested on: Abutilon theophrasti (ABUTH); assay: Pre-emergence herbicidal test; settings: 1000 g/ha, evaluated after 13 days
Zea mays (ZEAMX) [11] = assay: Pre-emergence herbicidal test; settings: 1000 g/ha, evaluated after 13 days
[12] = tested on: Ipomoea hederacea (IPOHE); assay: Pre-emergence herbicidal test; settings: 1000 g/ha, evaluated after 13 days

**Q.** For `CCOC(=O)c1nn(-c2ccc(OC(F)(F)F)cc2)c2cccc(SCC)c2c1=O` [Compound P23, ethyl 5-ethylsulfanyl-4-oxo-1-[4-(trifluoromethoxy)phenyl]cinnoline-3-carboxylate], which “percentage damage caused to the plant, five-point scale, SETFA” value (Setaria faberi (SETFA) [1]) is on record?
**A.** 0 (0=0%)

**Q.** What about the “percentage damage caused to the plant, five-point scale, ECHCG” value [2] of the same compound?
**A.** 0 (0=0%)

**Q.** What about the “percentage damage caused to the plant, five-point scale, AMARE” value [3] of the same compound?
**A.** 0 (0=0%)

**Q.** And the “percentage damage caused to the plant, ABUTH (five-point scale)” value [4]?
**A.** 1 (1=10-20%)

**Q.** And the “percentage damage caused to the plant, SETFA (five-point scale)” value (Setaria faberi (SETFA) [5])?
**A.** 1 (1=10-20%)

**Q.** What about the “percentage damage caused to the plant, IPOHE (five-point scale)” value [6] of the same compound?
**A.** 1 (1=10-20%)

**Q.** What about the “percentage damage caused to the plant, AMARE (five-point scale)” value [7] of the same compound?
**A.** 0 (0=0%)

**Q.** What about the “percentage damage caused to the plant, ECHCG (five-point scale)” value [8] of the same compound?
**A.** 1 (1=10-20%)

**Q.** And the “percentage damage caused to the plant, ZEAMX (five-point scale)” value (Zea mays (ZEAMX) [9])?
**A.** 1 (1=10-20%)

**Q.** What about the “percentage damage caused to the plant, five-point scale, ABUTH” value [10] of the same compound?
**A.** 0 (0=0%)

**Q.** What about the “percentage damage caused to the plant, five-point scale, ZEAMX” value (Zea mays (ZEAMX) [11]) of the same compound?
**A.** 1 (1=10-20%)

**Q.** What about the “percentage damage caused to the plant, five-point scale, IPOHE” value [12] of the same compound?
**A.** 0 (0=0%)

**Q.** Which results are given for `CCOC(=O)c1nn(-c2ccc(OC(F)(F)F)cc2)c2cccc([S+]([O-])CC)c2c1=O` (stereo not drawn) [Compound P24, ethyl 5-ethylsulfinyl-4-oxo-1-[4-(trifluoromethoxy)phenyl]cinnoline-3-carboxylate]?
**A.** percentage damage caused to the plant, five-point scale, SETFA (Setaria faberi (SETFA) [1]): 0 (0=0%); percentage damage caused to the plant, five-point scale, ECHCG [2]: 0 (0=0%); percentage damage caused to the plant, five-point scale, AMARE [3]: 0 (0=0%); percentage damage caused to the plant, ABUTH (five-point scale) [4]: 1 (1=10-20%); percentage damage caused to the plant, SETFA (five-point scale) (Setaria faberi (SETFA) [5]): 0 (0=0%); percentage damage caused to the plant, IPOHE (five-point scale) [6]: 0 (0=0%); percentage damage caused to the plant, AMARE (five-point scale) [7]: 1 (1=10-20%); percentage damage caused to the plant, ECHCG (five-point scale) [8]: 1 (1=10-20%); percentage damage caused to the plant, ZEAMX (five-point scale) (Zea mays (ZEAMX) [9]): 1 (1=10-20%); percentage damage caused to the plant, five-point scale, ABUTH [10]: 0 (0=0%); percentage damage caused to the plant, five-point scale, ZEAMX (Zea mays (ZEAMX) [11]): 0 (0=0%); percentage damage caused to the plant, five-point scale, IPOHE [12]: 0 (0=0%)

**Q.** How did the “percentage damage caused to the plant, five-point scale, SETFA” value (Setaria faberi (SETFA) [1]) turn out when `CC[S+]([O-])c1cccc2c1c(=O)c(C(=O)O)nn2-c1ccc(OC(F)(F)F)cc1` (stereo not drawn) [Compound P25, 5-ethylsulfinyl-4-oxo-1-[4-(trifluoromethoxy)phenyl]cinnoline-3-carboxylic acid] was run?
**A.** 1 (1=10-20%)

**Q.** What about the “percentage damage caused to the plant, five-point scale, ECHCG” value [2] of the same compound?
**A.** 0 (0=0%)

**Q.** And the “percentage damage caused to the plant, five-point scale, AMARE” value [3]?
**A.** 0 (0=0%)

**Q.** What about the “percentage damage caused to the plant, ABUTH (five-point scale)” value [4] of the same compound?
**A.** 1 (1=10-20%)

**Q.** And the “percentage damage caused to the plant, SETFA (five-point scale)” value (Setaria faberi (SETFA) [5])?
**A.** 2 (2=21-40%)

**Q.** What about the “percentage damage caused to the plant, IPOHE (five-point scale)” value [6] of the same compound?
**A.** 1 (1=10-20%)

**Q.** And the “percentage damage caused to the plant, AMARE (five-point scale)” value [7]?
**A.** 0 (0=0%)

**Q.** What about the “percentage damage caused to the plant, ECHCG (five-point scale)” value [8] of the same compound?
**A.** 1 (1=10-20%)

**Q.** And the “percentage damage caused to the plant, ZEAMX (five-point scale)” value (Zea mays (ZEAMX) [9])?
**A.** 1 (1=10-20%)

**Q.** What about the “percentage damage caused to the plant, five-point scale, ABUTH” value [10] of the same compound?
**A.** 0 (0=0%)

**Q.** What about the “percentage damage caused to the plant, five-point scale, ZEAMX” value (Zea mays (ZEAMX) [11]) of the same compound?
**A.** 0 (0=0%)

**Q.** What about the “percentage damage caused to the plant, five-point scale, IPOHE” value [12] of the same compound?
**A.** 0 (0=0%)

**Q.** How did the “percentage damage caused to the plant, five-point scale, SETFA” value (Setaria faberi (SETFA) [1]) turn out when `CCSc1cccc2c1c(=O)c(C(=O)O)nn2-c1ccc(OC(F)(F)F)cc1` [Compound P26, 5-ethylsulfanyl-4-oxo-1-[4-(trifluoromethoxy)phenyl]cinnoline-3-carboxylic acid] was run?
**A.** 0 (0=0%)

**Q.** What about the “percentage damage caused to the plant, five-point scale, ECHCG” value [2] of the same compound?
**A.** 0 (0=0%)

**Q.** What about the “percentage damage caused to the plant, five-point scale, AMARE” value [3] of the same compound?
**A.** 1 (1=10-20%)

**Q.** What about the “percentage damage caused to the plant, ABUTH (five-point scale)” value [4] of the same compound?
**A.** 1 (1=10-20%)

**Q.** What about the “percentage damage caused to the plant, SETFA (five-point scale)” value (Setaria faberi (SETFA) [5]) of the same compound?
**A.** 1 (1=10-20%)

**Q.** What about the “percentage damage caused to the plant, IPOHE (five-point scale)” value [6] of the same compound?
**A.** 0 (0=0%)

**Q.** And the “percentage damage caused to the plant, AMARE (five-point scale)” value [7]?
**A.** 0 (0=0%)

**Q.** What about the “percentage damage caused to the plant, ECHCG (five-point scale)” value [8] of the same compound?
**A.** 1 (1=10-20%)

**Q.** And the “percentage damage caused to the plant, ZEAMX (five-point scale)” value (Zea mays (ZEAMX) [9])?
**A.** 1 (1=10-20%)

**Q.** What about the “percentage damage caused to the plant, five-point scale, ABUTH” value [10] of the same compound?
**A.** 0 (0=0%)

**Q.** What about the “percentage damage caused to the plant, five-point scale, ZEAMX” value (Zea mays (ZEAMX) [11]) of the same compound?
**A.** 0 (0=0%)

**Q.** What about the “percentage damage caused to the plant, five-point scale, IPOHE” value [12] of the same compound?
**A.** 0 (0=0%)

Reference: US20230250066A1, “HERBICIDAL CINNOLINE DERIVATIVES” (SYNGENTA CROP PROTECTION AG, priority 2020, published 2023)
